# Read-outs that look alike come from different tables or passages of the source.
# Columns and labels:
# Type in all cases: cell-based, human
# Aβ = Aβ pathology (Aβ amount in medium) in cerebral cortex nerve cells induced from FAD1 patient iPS cells; conditions: for Aβ lesion (Aβ amount) / Aβ pathology: FAD1 nerve cells; for Aβ lesion (Aβ amount): compounds added 8 days after differentiation induction, Aβ amount two days later; for Aβ pathology: low dose
# From the text: To perform induction from iPS cells to the cerebral cortex nerve early and with high reproducibility, iPS cells introduced with human Neurogenin 2 gene (NGN2) linked to doxycycline-inducible promoter by using PiggyBac were used (FIG. 1a, FIG. 1b, FIG. 4a and FIG. 4b). IPS cells prepared from 4 patients with familial Alzheimer's disease (FAD), 2 patients with sporadic Alzheimer's disease (SAD) and 4 healthy individuals (HC) were used. The iPS cells were established by the method described in Okita K et al., Nature. […]
# (§1) To further study reproducibility of the candidate drugs obtained by the primary screening, secondary screening was conducted. In addition to Aβ40, Aβ42, Aβ42/40 ratio, Aβ38, Aβ43, sAPPα, sAPPβ were also studied and each numerical value was obtained.
# sAPPα = sAPPα in FAD1 iPS cell-derived nerve cells (secondary screening); set-up: scale not given here; conditions: secondary screening, FAD1 iPS cell-derived nerve cells
# Experimental: as §1
# Aβ38 = Aβ38 in FAD1 iPS cell-derived nerve cells (secondary screening); set-up: scale not given here
# Experimental: as §1
# Aβ42 = Aβ42 in FAD1 iPS cell-derived nerve cells (primary/secondary screening, dose dependency)
# Outline: (§2)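 Cerebral cortex neurons were induced from FAD1 patient iPS cells by doxycycline-inducible NGN2, delivered by PiggyBac. Aβ40 and Aβ42 in the culture medium gave the Aβ42/40 ratio, with dose dependency examined in primary and secondary screens. The secondary screen also covered Aβ38, Aβ43, sAPPα and sAPPβ.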
# Aβ43 = Aβ43 in FAD1 iPS cell-derived nerve cells (secondary screening); set-up: scale not given here
# Experimental: as §1
# Aβ42/40 ratio = Aβ42/40 ratio in FAD1 iPS cell-derived nerve cells (primary/secondary screening, dose dependency); conditions: secondary screening
# Outline: as §2
# sAPPβ = sAPPβ in FAD1 iPS cell-derived nerve cells (secondary screening); set-up: sAPPβ: scale not given here; conditions: for sAPPβ: secondary screening, FAD1 iPS cell-derived nerve cells
# Experimental: as §1
# Aβ40 = conditions: secondary screening, FAD1 iPS cell-derived nerve cells, numerical value (Aβ change rate)
# From the text: To perform induction from iPS cells to the cerebral cortex nerve early and with high reproducibility, iPS cells introduced with human Neurogenin 2 gene (NGN2) linked to doxycycline-inducible promoter by using PiggyBac were used (FIG. 1a, FIG. 1b, FIG. 4a and FIG. 4b). IPS cells prepared from 4 patients with familial Alzheimer's disease (FAD), 2 patients with sporadic Alzheimer's disease (SAD) and 4 healthy individuals (HC) were used. The iPS cells were established by the method described in Okita K et al., Nature.
# Structural formulas (those in the form of salt or halide are also described as free form) and the general names of the candidate compounds are shown in Table 1.
# as §1
# [1] = secondary screening, FAD1 iPS cell-derived nerve cells, numerical value (Aβ change rate)
Compound,Aβ lesion (Aβ amount) (Aβ),Aβ pathology (Aβ),Aβ suppressive effect (dopamine series) (Aβ),sAPPα (sAPPα),Aβ38 (Aβ38),Aβ42 (Aβ42; [1]),Aβ43 (Aβ43),Ratio Aβ42/40 (Aβ42/40 ratio),"action suggested from the sAPP metabolism (sAPPβ; sAPPα, sAPPβ, sAPPβ/α ratio)",sAPPβ (sAPPβ),Aβ suppressive effect (dopamine series) (Aβ; neuron derived from iPS cell (FAD1)),Aβ40 (Aβ40),"Aβ42 (Aβ42; FAD1 nerve cells, low dose)"
CC(NC(=O)c1cc(C(=O)NC(Cc2ccccc2)C(O)CNC2CC2)cc(N(C)S(C)(=O)=O)c1)c1ccccc1 (racemic) [RACE inhibitor IV],improved Aβ lesion,,,,,,,,,,,,
CC(C(=O)O)c1ccc(-c2ccccc2)c(F)c1 (centres unmarked) [Flurbiprofen],,not improved,,,,,,,,,,,
CC(C)C[C@H](C(=O)O)c1cc(-c2ccc(C(F)(F)F)cc2)cc(-c2ccc(C(F)(F)F)cc2)c1 [JNJ-40418677],improved Aβ lesion,,,,,,,,,,,,
COc1cc(C)c(/C=C/C(C)=C/C=C/C(C)=C/C(=O)O)c(C)c1C [acitretin],improved Aβ lesion,,,,,,,,,,,,
CC(N)Cc1ccccc1 (centres unmarked) [amphetamine],,,show effects,,,,,,,,,,
"CC(C)C[C@H]1C(=O)N2CCC[C@H]2[C@]2(O)O[C@](NC(=O)[C@@H]3C=C4c5cccc6[nH]c(Br)c(c56)C[C@H]4N(C)C3)(C(C)C)C(=O)N12 [compound 52, BROMOCRIPTINE]",,,show effects,1.18,0.97,0.63,0.65,0.64,BSI-like action,0.79,,,
"NCCc1ccc(O)c(O)c1 [compound 90, DOPAMINE]",,,,0.91,1.01,0.88,0.96,0.92,,0.95,show effects,,
"CN[C@H](CC(C)C)C(=O)N[C@H]1C(=O)N[C@@H](CC(N)=O)C(=O)N[C@H]2C(=O)N[C@H]3C(=O)N[C@H](C(=O)N[C@H](C(=O)O)c4cc(O)cc(O)c4-c4cc3ccc4O)[C@H](O)c3ccc(c(Cl)c3)Oc3cc2cc(c3O[C@@H]2O[C@H](CO)[C@@H](O)[C@H](O)[C@H]2O[C@H]2C[C@](C)(N)[C@H](O)[C@H](C)O2)Oc2ccc(cc2Cl)[C@H]1O [compound 105, VANCOMYCIN]",,,,1.33,1.29,1.06,1.2,1.05,,1.36,,1.01,
"NC(=O)NC1NC(=O)NC1=O (centres unmarked) [compound 116, ALLANTOIN]",,,,1.05,1.07,0.88,1.13,0.96,,0.93,,,
"C=CCSCC1Nc2cc(Cl)c(S(N)(=O)=O)cc2S(=O)(=O)N1 (centres unmarked) [compound 117, ALTHIAZIDE]",,,,0.92,1.03,0.81,0.91,0.91,,0.7,,,
"O=C(O)[C@H]1/C(=C/CO)O[C@@H]2CC(=O)N21 [compound 118, CLAVULANIC ACID]",,,,0.88,1.01,0.84,0.75,0.88,,1,,,
Cc1cc2c(cc1S(N)(=O)=O)S(=O)(=O)CCC2 [compound 119],,,,1.07,1.14,0.74,1.16,0.78,,0.87,,,
"Nc1ccc(S(=O)(=O)c2ccc(N)cc2)cc1 [compound 120, DAPSONE]",,,,0.74,1.06,0.83,0.8,0.84,,0.6,,,
"NCCc1cnc[nH]1 [compound 121, HISTAMINE]",,,,1.08,1.22,1.02,1.23,1.09,,1.15,,,
"Nc1nc(=S)c2[nH]cnc2[nH]1 [compound 122, THIOGUANINE]",,,,0.95,0.91,0.69,0.92,0.88,,0.9,,,
"Cn1c(=O)c2[nH]c(Cl)nc2n(C)c1=O [compound 124, 8-chlorotheophylline]",,,,0.97,1.06,0.98,0.97,1.01,,1.02,,,
"CC1=NS(=O)(=O)c2cc(Cl)ccc2N1 [compound 125, DIAZOXIDE]",,,,0.84,1.08,0.92,0.9,0.97,,0.84,,,
"CC(C)CC(N(C)C)C1(c2ccc(Cl)cc2)CCC1 (centres unmarked) [compound 126, SIBUTRAMINE]",,,,0.8,1.05,0.88,0.87,0.87,,0.92,,,
"O=C1c2ccccc2C(=O)C1c1ccc(Cl)cc1 [compound 127, CHLORINDIONE]",,,,0.74,0.92,0.79,0.87,0.85,,0.67,,,
"CN1C(=O)CCS(=O)(=O)C1c1ccc(Cl)cc1 (centres unmarked) [compound 128, CHLORMEZANONE]",,,,0.85,1.05,0.86,0.85,0.78,,0.72,,,
"CN(C)CCN(Cc1ccc(Cl)cc1)c1ccccn1 [compound 129, CHLOROPYRAMINE]",,,,0.87,0.96,0.83,0.89,0.81,,0.86,,,
"FC(F)(F)COCC(F)(F)F [compound 130, FLUROTHYL]",,,,0.79,1.03,0.8,0.81,0.85,,0.69,,,
Cc1ccc(NC(=O)c2ccc(CN3CCN(C)CC3)cc2)cc1Nc1nccc(-c2cccnc2)n1 [imatinib],,not improved,,,,,,,,,,,
CC(C)[C@H](O)C(=O)N[C@@H](C)C(=O)N[C@@H]1C(=O)N(C)CCc2ccccc21 [semagacestat],improved Aβ lesion,,,,,,,,,,,,increased
CC1=C(CC(=O)O)c2cc(F)ccc2/C1=C\c1ccc([S+](C)[O-])cc1 (centres unmarked) [sulindac],,not improved,,,,,,,,,,,
CINCHONINE [compound 24],,,,0.76,,0.88,0.81,,,0.68,,0.87,
TELITHROMYCIN [compound 108],,,,0.71,,0.85,0.84,,,0.68,,0.99,

# From US11026942B2, “Agent for preventing and/or treating Alzheimer's disease” (KYOTO UNIVERSITY, priority 2015, dated 2021)
